Data: ChEMBL document CHEMBL1126396 (Bioorg Med Chem Lett, 1992)

Legend:
Somatostatin receptor [1] = experiment: Radioligand binding studies on rat cortex membranes using 125 I-Tyrs-octreotide as ligand was determined
Somatostatin receptor [2] = experiment: Inhibitory activity against Somatostatin receptor in rat cortex membrane using 125 I-Tyrs-octreotide as radioligand; assay type: cell membranes

Q: What does the source list for NCCCCCOCC1OC(OCCc2c[nH]c3ccccc23)C(OCc2ccccc2)C1OCc1ccccc1 (configuration not stated)?
A: IC50 (Somatostatin receptor [1]): 23 µM; Log Ki (Somatostatin receptor [2]): -4.73
